# Measured values taken from publication PMC9116130 (Biochemical pharmacology, 2020).
# Where a SMILES comes first, the peptide text is derived from it. Bridges are numbered along the chain shown (N, C = ends).
# Columns and labels:
# rNaV1.2 = rNaV1.2 (Rattus norvegicus, UniProt P04775); experiment: Two-electrode voltage-clamp on Xenopus laevis oocytes expressing NaV1.2; conditions: for inhibition at 100 µM: read-out: Maximum % inhibition NaV1.2, peptide at 100 μM
# rNaV1.8 = rNaV1.8 (Rattus norvegicus, UniProt Q62968); experiment: Two-electrode voltage-clamp on Xenopus laevis oocytes expressing NaV1.8; conditions: for inhibition at 100 µM: read-out: Maximum % inhibition NaV1.8
# rNaV1.8, sequence (Q62968 whole entry): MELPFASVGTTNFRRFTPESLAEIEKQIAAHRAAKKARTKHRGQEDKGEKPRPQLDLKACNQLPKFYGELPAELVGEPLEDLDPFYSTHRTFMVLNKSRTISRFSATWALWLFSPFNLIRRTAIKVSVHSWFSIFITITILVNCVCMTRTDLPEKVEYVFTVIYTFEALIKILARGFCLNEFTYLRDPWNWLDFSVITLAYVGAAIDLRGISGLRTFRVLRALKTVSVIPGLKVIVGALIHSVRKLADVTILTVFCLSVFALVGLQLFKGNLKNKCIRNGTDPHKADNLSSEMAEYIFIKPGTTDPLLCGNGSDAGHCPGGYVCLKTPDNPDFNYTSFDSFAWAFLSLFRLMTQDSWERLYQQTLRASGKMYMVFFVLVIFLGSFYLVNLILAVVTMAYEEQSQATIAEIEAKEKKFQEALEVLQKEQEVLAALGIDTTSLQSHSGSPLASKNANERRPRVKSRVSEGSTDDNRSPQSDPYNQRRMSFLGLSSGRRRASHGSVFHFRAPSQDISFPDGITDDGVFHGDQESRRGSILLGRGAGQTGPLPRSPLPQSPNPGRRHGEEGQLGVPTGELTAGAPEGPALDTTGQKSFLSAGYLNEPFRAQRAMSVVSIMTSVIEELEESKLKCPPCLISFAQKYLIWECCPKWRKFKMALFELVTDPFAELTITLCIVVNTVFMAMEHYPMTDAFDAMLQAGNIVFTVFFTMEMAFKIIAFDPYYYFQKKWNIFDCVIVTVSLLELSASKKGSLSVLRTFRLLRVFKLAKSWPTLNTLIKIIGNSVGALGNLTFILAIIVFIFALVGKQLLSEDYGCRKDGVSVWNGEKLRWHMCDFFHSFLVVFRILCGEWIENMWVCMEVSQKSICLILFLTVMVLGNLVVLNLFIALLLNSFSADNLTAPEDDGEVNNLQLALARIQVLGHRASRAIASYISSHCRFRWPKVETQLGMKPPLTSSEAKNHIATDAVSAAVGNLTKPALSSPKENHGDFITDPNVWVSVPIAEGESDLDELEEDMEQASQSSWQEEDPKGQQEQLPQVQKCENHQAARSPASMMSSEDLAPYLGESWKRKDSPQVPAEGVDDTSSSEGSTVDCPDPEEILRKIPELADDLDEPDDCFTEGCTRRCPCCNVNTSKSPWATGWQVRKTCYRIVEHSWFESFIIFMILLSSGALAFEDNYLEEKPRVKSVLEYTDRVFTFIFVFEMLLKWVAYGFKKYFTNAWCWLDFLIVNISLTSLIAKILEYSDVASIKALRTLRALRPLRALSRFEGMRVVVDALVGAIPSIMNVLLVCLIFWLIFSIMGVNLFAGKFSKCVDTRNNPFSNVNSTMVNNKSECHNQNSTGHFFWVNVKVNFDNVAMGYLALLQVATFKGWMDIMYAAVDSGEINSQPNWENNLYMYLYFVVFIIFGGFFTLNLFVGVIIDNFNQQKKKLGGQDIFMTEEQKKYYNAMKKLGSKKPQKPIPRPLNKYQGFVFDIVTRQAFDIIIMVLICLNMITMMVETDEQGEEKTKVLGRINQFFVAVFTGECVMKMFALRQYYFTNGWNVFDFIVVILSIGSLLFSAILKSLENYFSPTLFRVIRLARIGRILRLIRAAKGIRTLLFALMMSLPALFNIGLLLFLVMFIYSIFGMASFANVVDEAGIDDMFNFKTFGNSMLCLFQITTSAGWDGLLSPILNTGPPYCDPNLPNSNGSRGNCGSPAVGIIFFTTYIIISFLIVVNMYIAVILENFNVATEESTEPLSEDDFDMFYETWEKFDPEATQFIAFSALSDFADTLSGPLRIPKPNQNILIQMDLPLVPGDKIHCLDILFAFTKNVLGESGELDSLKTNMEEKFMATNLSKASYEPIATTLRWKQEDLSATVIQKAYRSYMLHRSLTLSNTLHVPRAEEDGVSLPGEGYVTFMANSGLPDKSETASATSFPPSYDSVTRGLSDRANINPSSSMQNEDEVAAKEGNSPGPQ
# rNaV1.4 = rNaV1.4 (Rattus norvegicus, UniProt P15390); experiment: Two-electrode voltage-clamp on Xenopus laevis oocytes expressing NaV1.4; conditions: for inhibition at 100 µM: read-out: Maximum % inhibition NaV1.4, peptide at 100 μM; for Maximum % inhibition NaV1.4: peptide at 100 μM, 100 µM
# rNaV1.4, sequence (P15390 whole entry): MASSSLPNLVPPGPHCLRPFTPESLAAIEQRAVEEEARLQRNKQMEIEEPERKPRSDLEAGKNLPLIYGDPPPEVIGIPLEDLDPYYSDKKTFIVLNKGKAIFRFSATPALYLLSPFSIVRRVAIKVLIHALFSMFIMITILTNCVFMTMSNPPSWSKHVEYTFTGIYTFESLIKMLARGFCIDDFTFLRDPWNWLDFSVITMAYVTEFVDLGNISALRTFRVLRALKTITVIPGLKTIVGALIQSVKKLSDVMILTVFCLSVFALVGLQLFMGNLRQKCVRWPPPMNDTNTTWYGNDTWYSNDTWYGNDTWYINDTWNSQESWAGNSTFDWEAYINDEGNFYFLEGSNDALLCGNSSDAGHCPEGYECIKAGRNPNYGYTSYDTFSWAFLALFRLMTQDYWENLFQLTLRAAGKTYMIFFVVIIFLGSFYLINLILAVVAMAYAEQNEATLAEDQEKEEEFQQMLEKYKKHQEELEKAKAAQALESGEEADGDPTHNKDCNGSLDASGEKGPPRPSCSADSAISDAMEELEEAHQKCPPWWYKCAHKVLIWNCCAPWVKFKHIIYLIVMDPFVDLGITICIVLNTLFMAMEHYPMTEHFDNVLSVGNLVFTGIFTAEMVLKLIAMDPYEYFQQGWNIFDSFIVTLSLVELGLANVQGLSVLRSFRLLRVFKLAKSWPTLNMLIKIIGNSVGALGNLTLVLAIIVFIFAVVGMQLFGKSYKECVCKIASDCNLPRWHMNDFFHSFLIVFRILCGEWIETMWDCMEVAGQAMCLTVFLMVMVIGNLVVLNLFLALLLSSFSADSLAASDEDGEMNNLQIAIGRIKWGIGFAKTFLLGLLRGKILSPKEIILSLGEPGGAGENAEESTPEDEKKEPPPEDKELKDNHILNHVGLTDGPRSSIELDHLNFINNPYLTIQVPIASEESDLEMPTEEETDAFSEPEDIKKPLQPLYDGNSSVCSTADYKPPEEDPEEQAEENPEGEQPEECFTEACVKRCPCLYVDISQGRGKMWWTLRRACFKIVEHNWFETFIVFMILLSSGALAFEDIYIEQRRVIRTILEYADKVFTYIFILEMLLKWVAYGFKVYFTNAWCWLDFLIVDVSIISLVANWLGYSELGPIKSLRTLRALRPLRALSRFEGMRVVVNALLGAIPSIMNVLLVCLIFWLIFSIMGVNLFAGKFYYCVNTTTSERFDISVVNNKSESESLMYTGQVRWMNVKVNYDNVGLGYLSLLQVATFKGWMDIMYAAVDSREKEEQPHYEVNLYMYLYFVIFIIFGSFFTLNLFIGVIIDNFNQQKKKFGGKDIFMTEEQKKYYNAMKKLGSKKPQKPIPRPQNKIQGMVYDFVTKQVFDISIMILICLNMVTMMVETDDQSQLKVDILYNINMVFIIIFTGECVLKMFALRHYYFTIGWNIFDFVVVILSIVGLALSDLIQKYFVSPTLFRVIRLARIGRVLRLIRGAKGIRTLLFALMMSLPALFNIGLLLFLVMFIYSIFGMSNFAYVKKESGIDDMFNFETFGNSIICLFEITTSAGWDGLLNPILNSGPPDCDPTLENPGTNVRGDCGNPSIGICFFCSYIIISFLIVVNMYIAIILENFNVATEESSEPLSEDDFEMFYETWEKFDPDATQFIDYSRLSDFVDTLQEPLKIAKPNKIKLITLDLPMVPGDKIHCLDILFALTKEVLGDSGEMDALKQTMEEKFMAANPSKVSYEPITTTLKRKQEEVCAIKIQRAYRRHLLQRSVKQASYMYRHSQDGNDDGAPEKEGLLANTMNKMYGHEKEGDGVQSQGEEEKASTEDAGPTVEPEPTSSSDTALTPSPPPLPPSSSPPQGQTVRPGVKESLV
# rNaV1.4, sequence (Q00954 19-218, further chain): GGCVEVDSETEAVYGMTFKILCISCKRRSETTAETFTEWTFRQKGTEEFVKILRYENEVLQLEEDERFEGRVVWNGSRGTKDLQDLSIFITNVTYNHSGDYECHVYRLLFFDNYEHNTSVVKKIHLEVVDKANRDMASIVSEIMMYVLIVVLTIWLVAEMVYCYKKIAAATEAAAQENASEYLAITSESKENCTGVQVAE
# mNaV1.6 = mNaV1.6 (Mus musculus, UniProt Q9WTU3); experiment: Two-electrode voltage-clamp on Xenopus laevis oocytes expressing NaV1.6; conditions: for inhibition at 100 µM: read-out: Maximum % inhibition NaV1.6, peptide at 100 μM
# hNaV1.5 = hNaV1.5 (Homo sapiens, UniProt Q14524); experiment: Two-electrode voltage-clamp on Xenopus laevis oocytes expressing NaV1.5; conditions: for inhibition at 100 µM: read-out: Maximum % inhibition NaV1.5
SMILES,inhibition at 100 µM (rNaV1.2) [%],inhibition at 100 µM (rNaV1.8) [%],inhibition at 100 µM (rNaV1.4) [%],inhibition at 100 µM (mNaV1.6) [%],inhibition at 100 µM (hNaV1.5) [%],IC50 (rNaV1.2) [nM],IC50 (rNaV1.8) [nM],IC50 (rNaV1.4) [nM],IC50 (mNaV1.6) [nM],IC50 (hNaV1.5) [nM],"Maximum % inhibition NaV1.2 (rNaV1.2; peptide at 100 μM, 100 µM) [%]",Maximum % inhibition NaV1.4 (rNaV1.4) [%]
"CC(=O)N[C@H]1CSSC[C@@H](C(=O)O)NC(=O)[C@H](CCCNC(=N)N)NC(=O)[C@H](CC(N)=O)NC(=O)[C@H](Cc2c[nH]c3ccccc23)NC(=O)[C@H](CCCNC(=N)N)NC(=O)[C@H](C)NC(=O)[C@H](Cc2c[nH]c3ccccc23)NC(=O)[C@H](CCCNC(=N)N)NC(=O)[C@H](CCCNC(=N)N)NC1=O [PnCS1Ac, Ac-CRRWARWNRC] (Ac-CRRWARWNRC-OH; disulfide 1-10)",0,0,0,0,0,,,,,,,
"CC(=O)N[C@H]1CSSC[C@@H](C(N)=O)NC(=O)[C@H](CCCNC(=N)N)NC(=O)[C@H](CC(N)=O)NC(=O)[C@H](Cc2c[nH]c3ccccc23)NC(=O)[C@H](CCCNC(=N)N)NC(=O)[C@H](C)NC(=O)[C@H](Cc2c[nH]c3ccccc23)NC(=O)[C@H](CCCNC(=N)N)NC(=O)[C@H](CCCNC(=N)N)NC1=O [PnCS1AcAm, Ac-CRRWARWNRC ^*] (Ac-CRRWARWNRC-NH2; disulfide 1-10)",0,0,0,0,0,> 100000,> 100000,> 100000,> 100000,> 100000,,
"C[C@@H]1NC(=O)[C@H](Cc2c[nH]c3ccccc23)NC(=O)[C@H](CCCNC(=N)N)NC(=O)[C@H](CCCNC(=N)N)NC(=O)[C@@H](N)CSSC[C@@H](C(=O)O)NC(=O)[C@H](CCCNC(=N)N)NC(=O)[C@H](CC(N)=O)NC(=O)[C@H](Cc2c[nH]c3ccccc23)NC(=O)[C@H](CCCNC(=N)N)NC1=O [PnCS1DeAm, CRRWARWNRC] (H-CRRWARWNRC-OH; disulfide 1-10)",34,0,43,24,10,> 100000,> 100000,> 100000,> 100000,> 100000,,
"N=C(N)NCCC[C@@H]1NC(=O)[C@H](CC(N)=O)NC(=O)[C@H](Cc2c[nH]c3ccccc23)NC(=O)[C@H](CCCNC(=N)N)NC(=O)[C@H](CCC(=O)O)NC(=O)[C@H](Cc2c[nH]c3ccccc23)NC(=O)[C@H](CCCNC(=N)N)NC(=O)[C@H](CCCNC(=N)N)NC(=O)[C@@H](N)CSSC[C@@H](C(N)=O)NC1=O [PnCS1[A5E], CRRWERWNRC ^*] (H-CRRWERWNRC-NH2; disulfide 1-10)",81,0,35,82,73,1400 ± 200,> 100000,> 100000,1800 ± 500,8800 ± 3700,,
"N=C(N)NCCC[C@@H]1NC(=O)[C@H](CC(N)=O)NC(=O)[C@H](Cc2c[nH]c3ccccc23)NC(=O)[C@H](CCCNC(=N)N)NC(=O)[C@H](CCCCN)NC(=O)[C@H](Cc2c[nH]c3ccccc23)NC(=O)[C@H](CCCNC(=N)N)NC(=O)[C@H](CCCNC(=N)N)NC(=O)[C@@H](N)CSSC[C@@H](C(N)=O)NC1=O [PnCS1[A5K], CRRWKRWNRC ^*] (H-CRRWKRWNRC-NH2; disulfide 1-10)",84,0,91,93,92,1200 ± 400,> 100000,1900 ± 800,700 ± 300,2100 ± 200,,
"C[C@@H]1NC(=O)[C@H](Cc2c[nH]c3ccccc23)NC(=O)[C@H](CCCNC(=N)N)NC(=O)[C@H](C)NC(=O)[C@H](Cc2c[nH]c3ccccc23)NC(=O)[C@H](CCCNC(=N)N)NC(=O)[C@H](CCCNC(=N)N)NC(=O)[C@@H](N)CSSC[C@@H](C(N)=O)NC(=O)[C@H](CCCNC(=N)N)NC1=O [PnCS1[N8A], CRRWARWARC ^*] (H-CRRWARWARC-NH2; disulfide 1-10)",> 95,0,94,89,92,900 ± 300,> 100000,900 ± 400,800 ± 300,2200 ± 700,96,
"C[C@@H]1NC(=O)[C@H](Cc2c[nH]c3ccccc23)NC(=O)[C@H](CCCNC(=N)N)NC(=O)[C@H](CCCNC(=N)N)NC(=O)[C@@H](N)CSSC[C@@H](C(N)=O)NC(=O)[C@H](CCCNC(=N)N)NC(=O)[C@H](CCC(=O)O)NC(=O)[C@H](Cc2c[nH]c3ccccc23)NC(=O)[C@H](CCCNC(=N)N)NC1=O [PnCS1[N8E], CRRWARWERC ^*] (H-CRRWARWERC-NH2; disulfide 1-10)",47,0,53,27,44,> 100000,> 100000,> 100000,> 100000,> 100000,,
"C[C@@H]1NC(=O)[C@H](Cc2c[nH]c3ccccc23)NC(=O)[C@H](CCCNC(=N)N)NC(=O)[C@H](CCCNC(=N)N)NC(=O)[C@@H](N)CSSC[C@@H](C(N)=O)NC(=O)[C@H](CCCNC(=N)N)NC(=O)[C@H](CCCCN)NC(=O)[C@H](Cc2c[nH]c3ccccc23)NC(=O)[C@H](CCCNC(=N)N)NC1=O [PnCS1[N8K], CRRWARWKRC ^*] (H-CRRWARWKRC-NH2; disulfide 1-10)",81,0,> 95,92,86,4400 ± 800,> 100000,900 ± 300,500 ± 200,2800 ± 500,,96
"C[C@@H]1NC(=O)[C@H](Cc2c[nH]c3ccccc23)NC(=O)[C@H](CCCNC(=N)N)NC(=O)[C@H](C)NC(=O)[C@@H](N)CSSC[C@@H](C(N)=O)NC(=O)[C@H](CCCNC(=N)N)NC(=O)[C@H](CC(N)=O)NC(=O)[C@H](Cc2c[nH]c3ccccc23)NC(=O)[C@H](CCCNC(=N)N)NC1=O [PnCS1[R2A], CARWARWNRC ^*] (H-CARWARWNRC-NH2; disulfide 1-10)",84,0,> 95,71,68,2900 ± 500,> 100000,1400 ± 400,1600 ± 500,1700 ± 700,,96
"C[C@@H]1NC(=O)[C@H](Cc2c[nH]c3ccccc23)NC(=O)[C@H](CCCNC(=N)N)NC(=O)[C@H](CCC(=O)O)NC(=O)[C@@H](N)CSSC[C@@H](C(N)=O)NC(=O)[C@H](CCCNC(=N)N)NC(=O)[C@H](CC(N)=O)NC(=O)[C@H](Cc2c[nH]c3ccccc23)NC(=O)[C@H](CCCNC(=N)N)NC1=O [PnCS1[R2E], CERWARWNRC ^*] (H-CERWARWNRC-NH2; disulfide 1-10)",41,0,11,5,27,> 100000,> 100000,> 100000,> 100000,> 100000,,
"C[C@@H]1NC(=O)[C@H](Cc2c[nH]c3ccccc23)NC(=O)[C@H](CCCNC(=N)N)NC(=O)[C@H](CCCCN)NC(=O)[C@@H](N)CSSC[C@@H](C(N)=O)NC(=O)[C@H](CCCNC(=N)N)NC(=O)[C@H](CC(N)=O)NC(=O)[C@H](Cc2c[nH]c3ccccc23)NC(=O)[C@H](CCCNC(=N)N)NC1=O [PnCS1[R2K], CKRWARWNRC ^*] (H-CKRWARWNRC-NH2; disulfide 1-10)",92,0,93,85,82,1100 ± 500,> 100000,800 ± 300,600 ± 200,2500 ± 500,,
"C[C@@H]1NC(=O)[C@H](Cc2c[nH]c3ccccc23)NC(=O)[C@H](C)NC(=O)[C@H](CCCNC(=N)N)NC(=O)[C@@H](N)CSSC[C@@H](C(N)=O)NC(=O)[C@H](CCCNC(=N)N)NC(=O)[C@H](CC(N)=O)NC(=O)[C@H](Cc2c[nH]c3ccccc23)NC(=O)[C@H](CCCNC(=N)N)NC1=O [PnCS1[R3A], CRAWARWNRC ^*] (H-CRAWARWNRC-NH2; disulfide 1-10)",86,0,89,87,51,1800 ± 300,> 100000,1600 ± 500,1900 ± 400,> 100000,,
"C[C@@H]1NC(=O)[C@H](Cc2c[nH]c3ccccc23)NC(=O)[C@H](CCC(=O)O)NC(=O)[C@H](CCCNC(=N)N)NC(=O)[C@@H](N)CSSC[C@@H](C(N)=O)NC(=O)[C@H](CCCNC(=N)N)NC(=O)[C@H](CC(N)=O)NC(=O)[C@H](Cc2c[nH]c3ccccc23)NC(=O)[C@H](CCCNC(=N)N)NC1=O [PnCS1[R3E], CREWARWNRC ^*] (H-CREWARWNRC-NH2; disulfide 1-10)",52,0,36,24,21,> 100000,> 100000,> 100000,> 100000,> 100000,,
